# Tested on: cancer-bearing mice (WHT/Ht albino mice), squamous-cell carcinoma and fibrosarcoma
# Test: Radiation intensity of each organ after intravenous injection to cancer-bearing mice
# Type: in vivo
# Procedure: Compound 4 of Example 4 was intravenously injected to cancer-bearing mice (WHT/Ht albino mice) (3 mice per group). Systemic frozen sections of each mouse were prepared 10, 30, 60, 120, and 150 minutes after intravenous injection, and the radiation intensity of each organ was measured. Squamous-cell carcinoma and fibrosarcoma were employed as cancer sources. When the sections was prepared, blood was collected separately, and the ratio of radiation intensity in each organ to that in blood was obtained.
# [1] = 10 min. after intravenous injection
# [2] = 30 min. after intravenous injection
# [3] = 60 min. after intravenous injection
# [4] = 120 min. after intravenous injection
# [5] = 150 min. after intravenous injection
smiles,measurement,setting,value
"O=[N+]([O-])c1nccn1COC(CO)C[18F] (stereo not shown) [Compound 4, 1-[2-fluoro(^18F)-1-(hydroxymethyl)ethoxy]methyl-2-nitroimidazole]","radiation intensity, Blood",[1],2.222
same,"radiation intensity, Bone",[1],1.157
same,"radiation intensity, Brain",[1],1.168
same,"radiation intensity, Fibrosarcoma",[1],1.584
same,"radiation intensity, Heart",[1],1.721
same,"radiation intensity, Intestine",[1],1.697
same,"radiation intensity, Kidney",[1],7.935
same,"radiation intensity, Liver",[1],10.300
same,"radiation intensity, Lung",[1],2.151
same,"radiation intensity, Muscle",[1],1.576
same,"radiation intensity, Squamous carcinoma",[1],2.192
same,"radiation intensity, Testis",[1],0.861
same,"ratio of radiation intensity, Fibrosarcoma/blood",[1],0.697
same,"ratio of radiation intensity, Squamous carcinoma/blood",[1],0.893
same,"radiation intensity, Blood",[2],1.068
same,"radiation intensity, Bone",[2],0.617
same,"radiation intensity, Brain",[2],0.815
same,"radiation intensity, Fibrosarcoma",[2],1.319
same,"radiation intensity, Heart",[2],0.929
same,"radiation intensity, Intestine",[2],0.767
same,"radiation intensity, Kidney",[2],5.667
same,"radiation intensity, Liver",[2],5.018
same,"radiation intensity, Lung",[2],1.347
same,"radiation intensity, Muscle",[2],0.742
same,"radiation intensity, Squamous carcinoma",[2],1.237
same,"radiation intensity, Testis",[2],0.852
same,"ratio of radiation intensity, Fibrosarcoma/blood",[2],1.234
same,"ratio of radiation intensity, Squamous carcinoma/blood",[2],1.012
same,"radiation intensity, Blood",[3],0.379
same,"radiation intensity, Bone",[3],0.244
same,"radiation intensity, Brain",[3],0.308
same,"radiation intensity, Fibrosarcoma",[3],0.619
same,"radiation intensity, Heart",[3],0.378
same,"radiation intensity, Intestine",[3],0.533
same,"radiation intensity, Kidney",[3],1.856
same,"radiation intensity, Liver",[3],1.692
same,"radiation intensity, Lung",[3],0.596
same,"radiation intensity, Muscle",[3],0.314
same,"radiation intensity, Squamous carcinoma",[3],0.466
same,"radiation intensity, Testis",[3],0.466
same,"ratio of radiation intensity, Fibrosarcoma/blood",[3],1.634
same,"ratio of radiation intensity, Squamous carcinoma/blood",[3],1.384
same,"radiation intensity, Blood",[4],0.117
same,"radiation intensity, Bone",[4],0.253
same,"radiation intensity, Brain",[4],0.116
same,"radiation intensity, Fibrosarcoma",[4],0.421
same,"radiation intensity, Heart",[4],0.216
same,"radiation intensity, Intestine",[4],0.56
same,"radiation intensity, Kidney",[4],0.699
same,"radiation intensity, Liver",[4],0.730
same,"radiation intensity, Lung",[4],0.353
same,"radiation intensity, Muscle",[4],0.139
same,"radiation intensity, Squamous carcinoma",[4],0.133
same,"radiation intensity, Testis",[4],0.412
same,"ratio of radiation intensity, Fibrosarcoma/blood",[4],3.601
same,"ratio of radiation intensity, Squamous carcinoma/blood",[4],2.904
same,"radiation intensity, Blood",[5],0.096
same,"radiation intensity, Bone",[5],0.218
same,"radiation intensity, Brain",[5],0.126
same,"radiation intensity, Fibrosarcoma",[5],0.351
same,"radiation intensity, Heart",[5],0.186
same,"radiation intensity, Intestine",[5],0.488
same,"radiation intensity, Kidney",[5],0.511
same,"radiation intensity, Liver",[5],0.800
same,"radiation intensity, Lung",[5],0.331
same,"radiation intensity, Muscle",[5],0.159
same,"radiation intensity, Squamous carcinoma",[5],0.101
same,"radiation intensity, Testis",[5],0.139
same,"ratio of radiation intensity, Fibrosarcoma/blood",[5],3.675
same,"ratio of radiation intensity, Squamous carcinoma/blood",[5],2.357
